Source: patent US20230226040A1, “COMBINATION THERAPY COMPRISING AN FGFR INHIBITOR AND A KRAS INHIBITOR” (Incyte Corporation, priority 2021, published 2023)
Several values for one entry are separate records, joined by “and”; a condition that tells them apart may be missing. Identical values can stand only once.

Experiments:
Type in all cases: cell-based
SW-837 = experiment: 5-day Cell Titer Glo combination matrix, Bliss score; conditions: SW837 (CRC, Epithelial); FGFR inhibitor in combination with MRTX849; 5 days
Method: (§2) Cells were seeded in RPMI medium with 10% HI FBS at a density of 500 cells/well in Greiner, white, clear bottom, 384-well tissue culture treated plates containing 10×10 combination matrices of compound. Plates were incubated at 37° C., 5% CO2 for 5 days. On day 5, Cell Titer Glo reagent was added to the plates and ATP luminescence was detected using a Pherastar FSX reader. The synergy score for the combination effect was calculated using a Bliss score model where the Bliss score=Yab-(Ya+Yb−(YaYb))×100, where Ya and Yb are the monotherapies. Bliss scores >20 are strongly synergistic and a higher Bliss scores indicates a higher level of synergism.
(§3) Cells were seeded in RPMI medium with 10% HI FBS at a density of 500 cells/well in Greiner, white, clear bottom, 384-well tissue culture treated plates containing 10×10 combination matrices of compound. Plates were incubated at 37° C., 5% CO2 for 5 days. On day 5, Cell Titer Glo reagent was added to the plates and ATP luminescence was detected using a Pherastar FSX reader. The synergy score for the combination effect was calculated using a Bliss score model where the Bliss score=Yab−(Ya+Yb−(YaYb))×100, where Ya and Yb are the monotherapies. Bliss scores >20 are strongly synergistic and a higher Bliss scores indicates a higher level of synergism.

H1792 = experiment: as above; conditions: H1792 (Lung, Mesenchymal), 5 days
Method: as §2
(§4) Cells were seeded in RPMI medium with 10% HI FBS at a density of 500 cells/well in Greiner, white, clear bottom, 384-well tissue culture treated plates containing 10×10 combination matrices of compound. Plates were incubated at 37° C., 5% CO2 for 5 days. On day 5, Cell Titer Glo reagent was added to the plates and ATP luminescence was detected using a Pherastar FSX reader. Synergy score for the combination effect is calculated using a Bliss score model where the Bliss score=Yab−(Ya+Yb−(YaYb))×100, where Ya and Yb are the monotherapies. Bliss scores >20 are strongly synergistic and a higher Bliss scores indicates a higher level of synergism.
as §3

H358 = experiment: as above; conditions: H358 (Lung, Epithelial), 5 days
Method: as §2, §4, §3

LU-99 = experiment: as above; conditions: 5 days
Method: as §4, §3

HCC-44 = experiment: as above; conditions: HCC44 (Lung, Mesenchymal); FGFR inhibitor in combination with MRTX849; 5 days
Method: as §2, §3

[1] = tested on: MiaPaca2 KRAS G12C resistant clone 11; experiment: 5-day Cell Titer Glo viability and Bliss score
Method: (§1) For G12C resistant clone generation, MiaPaca2 parent cells were cultured with increasing concentrations of AMG510 (up to 1μM) over time. The viable cells were re-fed fresh media containing AMG510 weekly. Once the AMG510 resistant cells were growing at normal rates in the presence of 1μM AMG510, they were cloned by limiting dilution. Eight clones were selected for continued passage and further experiments.

[2] = tested on: MiaPaca2 KRAS G12C resistant clone 23; experiment: 5-day Cell Titer Glo viability and Bliss score; conditions: 5-day CTG
Method: as §1

[3] = tested on: MiaPaca2 KRAS G12C resistant clone 7; experiment: 5-day Cell Titer Glo viability and Bliss score; conditions: 5-day CTG; for % viability, Pemi 1 μM: Pemi alone
Method: as §1

SW-1573 = experiment: 5-day Cell Titer Glo combination matrix, Bliss score; conditions: 5 days
Method: as §2, §4, §3

H2122 = experiment: as above; conditions: H2122 (Lung, Epithelial); FGFR inhibitor in combination with MRTX849; 5 days
Method: as §3

[4] = FGFR inhibitor in combination with Cmpd 3
[5] = FGFR inhibitor in combination with MRTX849
[6] = CLONE 11, G12C i 111 nM + Pemi 1 μM, 5-day CTG
[7] = Average, G12C i 111 nM + Pemi 1 μM

CCN1C(=O)N(c2c(F)c(OC)cc(OC)c2F)Cc2cnc3[nH]c(CN4CCOCC4)cc3c21 [Pemigatinib, 3-(2,6-difluoro-3,5-dimethoxyphenyl)-1-ethyl-8-(morpholin-4-ylmethyl)-1,3,4,7-tetrahydro-2H-pyrrolo[3′,2′:5,6]pyrido[4,3-d]pyrimidin-2-one]
Avg. Bliss Score (SW-837): 6.1 | Avg. Bliss Score (H1792; [4]): 24.2 | Avg. Bliss Score (H1792; [5]): 19.9 | Avg. Bliss Score (H358; [4]): 1.4 | Avg. Bliss Score (H358; [5]): 3.7 | Avg. Bliss Score (LU-99; LU-99 (Lung, Mesenchymal), FGFR inhibitor in combination with Cmpd 3): 44.8 | Avg. Bliss Score (LU-99; Lu99 (Lung, Mesenchymal), FGFR inhibitor in combination with MRTX849): 37.4 | Avg. Bliss Score (HCC-44): 11.6 | % viability, Together [1, 6]: 33.8% | BLISS Score [1, 6]: 24.9 | % viability, Pemi 1 μM ([1]; CLONE 11, Pemi alone, 5-day CTG): 87.6% | BLISS Score ([1]; MIA-R clone 11, Pemi 12 nM + KRAS G12C i 0.15 nM, 5 day CTG): 2.35 | BLISS Score ([1]; MIA-R clone 11, Pemi 12 nM + KRAS G12C i 0.46 nM, 5 day CTG): 11.42 | BLISS Score ([1]; MIA-R clone 11, Pemi 12 nM + KRAS G12C i 1.37 nM, 5 day CTG): 6.90 | BLISS Score ([1]; MIA-R clone 11, Pemi 12 nM + KRAS G12C i 4.12 nM, 5 day CTG): 11.81 | BLISS Score ([1]; MIA-R clone 11, Pemi 12 nM + KRAS G12C i 12.35 nM, 5 day CTG): 1.32 | BLISS Score ([1]; MIA-R clone 11, Pemi 12 nM + KRAS G12C i 37.04 nM, 5 day CTG): 5.62 | BLISS Score ([1]; MIA-R clone 11, Pemi 12 nM + KRAS G12C i 111.11 nM, 5 day CTG): 11.57 | BLISS Score ([1]; MIA-R clone 11, Pemi 12 nM + KRAS G12C i 333.33 nM, 5 day CTG): −7.24 | BLISS Score ([1]; MIA-R clone 11, Pemi 12 nM + KRAS G12C i 1000.00 nM, 5 day CTG): 1.05 | BLISS Score ([1]; MIA-R clone 11, Pemi 37 nM + KRAS G12C i 0.15 nM, 5 day CTG): 14.47 | BLISS Score ([1]; MIA-R clone 11, Pemi 37 nM + KRAS G12C i 0.46 nM, 5 day CTG): 6.20 | BLISS Score ([1]; MIA-R clone 11, Pemi 37 nM + KRAS G12C i 1.37 nM, 5 day CTG): 6.05 | BLISS Score ([1]; MIA-R clone 11, Pemi 37 nM + KRAS G12C i 4.12 nM, 5 day CTG): 20.01 | BLISS Score ([1]; MIA-R clone 11, Pemi 37 nM + KRAS G12C i 12.35 nM, 5 day CTG): 15.07 | BLISS Score ([1]; MIA-R clone 11, Pemi 37 nM + KRAS G12C i 37.04 nM, 5 day CTG): 10.60 | BLISS Score ([1]; MIA-R clone 11, Pemi 37 nM + KRAS G12C i 111.11 nM, 5 day CTG): 8.39 | BLISS Score ([1]; MIA-R clone 11, Pemi 37 nM + KRAS G12C i 333.33 nM, 5 day CTG): −5.78 | BLISS Score ([1]; MIA-R clone 11, Pemi 37 nM + KRAS G12C i 1000.00 nM, 5 day CTG): 4.52 | BLISS Score ([1]; MIA-R clone 11, Pemi 111 nM + KRAS G12C i 0.15 nM, 5 day CTG): −3.03 | BLISS Score ([1]; MIA-R clone 11, Pemi 111 nM + KRAS G12C i 0.46 nM, 5 day CTG): 6.04 | BLISS Score ([1]; MIA-R clone 11, Pemi 111 nM + KRAS G12C i 1.37 nM, 5 day CTG): 8.76 | BLISS Score ([1]; MIA-R clone 11, Pemi 111 nM + KRAS G12C i 4.12 nM, 5 day CTG): 13.15 | BLISS Score ([1]; MIA-R clone 11, Pemi 111 nM + KRAS G12C i 12.35 nM, 5 day CTG): 15.70 | BLISS Score ([1]; MIA-R clone 11, Pemi 111 nM + KRAS G12C i 37.04 nM, 5 day CTG): 13.58 | BLISS Score ([1]; MIA-R clone 11, Pemi 111 nM + KRAS G12C i 111.11 nM, 5 day CTG): 9.80 | BLISS Score ([1]; MIA-R clone 11, Pemi 111 nM + KRAS G12C i 333.33 nM, 5 day CTG): 6.86 | BLISS Score ([1]; MIA-R clone 11, Pemi 111 nM + KRAS G12C i 1000.00 nM, 5 day CTG): 3.15 | BLISS Score ([1]; MIA-R clone 11, Pemi 333 nM + KRAS G12C i 0.15 nM, 5 day CTG): 6.68 | BLISS Score ([1]; MIA-R clone 11, Pemi 333 nM + KRAS G12C i 0.46 nM, 5 day CTG): 20.56 | BLISS Score ([1]; MIA-R clone 11, Pemi 333 nM + KRAS G12C i 1.37 nM, 5 day CTG): 17.83 | BLISS Score ([1]; MIA-R clone 11, Pemi 333 nM + KRAS G12C i 4.12 nM, 5 day CTG): 34.95 | BLISS Score ([1]; MIA-R clone 11, Pemi 333 nM + KRAS G12C i 12.35 nM, 5 day CTG): 20.46 | BLISS Score ([1]; MIA-R clone 11, Pemi 333 nM + KRAS G12C i 37.04 nM, 5 day CTG): 24.19 | BLISS Score ([1]; MIA-R clone 11, Pemi 333 nM + KRAS G12C i 111.11 nM, 5 day CTG): 25.28 | BLISS Score ([1]; MIA-R clone 11, Pemi 333 nM + KRAS G12C i 333.33 nM, 5 day CTG): 14.69 | BLISS Score ([1]; MIA-R clone 11, Pemi 333 nM + KRAS G12C i 1000.00 nM, 5 day CTG): 13.90 | BLISS Score ([1]; MIA-R clone 11, Pemi 1000 nM + KRAS G12C i 0.15 nM, 5 day CTG): −0.21 | BLISS Score ([1]; MIA-R clone 11, Pemi 1000 nM + KRAS G12C i 0.46 nM, 5 day CTG): 11.01 | BLISS Score ([1]; MIA-R clone 11, Pemi 1000 nM + KRAS G12C i 1.37 nM, 5 day CTG): 23.94 | BLISS Score ([1]; MIA-R clone 11, Pemi 1000 nM + KRAS G12C i 4.12 nM, 5 day CTG): 31.01 | BLISS Score ([1]; MIA-R clone 11, Pemi 1000 nM + KRAS G12C i 12.35 nM, 5 day CTG): 29.47 | BLISS Score ([1]; MIA-R clone 11, Pemi 1000 nM + KRAS G12C i 37.04 nM, 5 day CTG): 21.52 | BLISS Score ([1]; MIA-R clone 11, Pemi 1000 nM + KRAS G12C i 111.11 nM, 5 day CTG): 24.91 | BLISS Score ([1]; MIA-R clone 11, Pemi 1000 nM + KRAS G12C i 333.33 nM, 5 day CTG): 20.06 | BLISS Score ([1]; MIA-R clone 11, Pemi 1000 nM + KRAS G12C i 1000.00 nM, 5 day CTG): 21.43 | % viability, Together ([2]; G12C i 111 nM + Pemi 1 μM): 74.9% | BLISS Score ([2]; G12C i 111 nM + Pemi 1 μM): 16.1 | % viability, Pemi 1 μM ([2]; Pemi alone): 100.1% | % viability, Together [3, 7]: 54.6% | BLISS Score [3, 7]: 15.0 | % viability, Pemi 1 μM ([3]; Average): 101.1% | % viability, Together ([3]; G12C i 111 nM + Pemi 1 μM, single experiments): 63% and 53% and 47.7% | % viability, Pemi 1 μM ([3]; single experiments): 104% and 106% and 93.4% | Avg. Bliss Score (SW-1573; SW1573 (Lung, Mesenchymal), FGFR inhibitor in combination with MRTX849): 29.5 | Avg. Bliss Score (SW-1573; SW-1573 (Lung, Mesenchymal), FGFR inhibitor in combination with Cmpd 3): 19.3 | Avg. Bliss Score (H2122): 4.5
